Assay results: patent publication US12258422B2, “Cyclopeptide and method for preparing the same” (NATIONAL TSING HUA UNIVERSITY, priority 2020, dated 2025)
Values joined by “and” are separate entries in the source; they are usually repeats but may differ in a detail not shown here. Equal values may be shown once.

Legend:
[1] = test system: MMP-1; experiment: MMP-1 inhibition test: TNF-α-induced MMP-1 level in skin fibroblasts, ELISA; type: cell-based, human; details: for MMP-1 Conc.: TNF-α 20 ng/mL, Hs68; for inhibition of MMP-1: compared to 3.3 μM of RA (set as 100%); for IC50: Hs68, TNF-α induced, calculated from inhibition rate vs concentration (FIG. 1, FIG. 2)
Description: Matrix Metalloproteinase-1 (MMP-1) is one of collagenases, and is involved in the degradation of the extracellular matrix (ECM). In details, fibroblasts result in the overexpression of MMP-1 after exposure to UV-containing sunlight, so that the ECM is then degraded by MMP-1.
To examine the effect of the cyclopeptide of the present disclosure, a series of MMP-1 inhibition test was conducted.
In this test, test compound and human fibroblasts were co-cultured, and cytokine tumor necrosis factor-α (TNF-α) was added as an inducer to induce the expression of MMP-1 to a high level. Then, the test compound was evaluated for the ability of reducing the MMP-1 level induced by TNF-α.
Test compound: cyclopeptide (III-3) of the present disclosure, in which Q is Cl.
Cell Line: Skin Fibroblast Hs68
First, the seeding of skin fibroblast Hs68 cells onto culture medium dish was conducted overnight, and then different concentrations (0.05 μM, 0.25 μM, 1.25 μM, 2.5 μM and 5 μM) of cyclopeptide (III-3) were added to the skin fibroblast cells for 6 hours, which was further incubated with TNF-α (20 ng/mL) for 42 hours.

[2] = test system: hs68 human fibroblasts; experiment: Procollagen Type I C-Peptide (PIP) EIA, induction of procollagen secretion; type: cell-based
Source text: (§1) Type I collagen is the primary component of the skin dermis. Both the quantity and quality of extracellular collagen are primarily related to skin ageing. The present embodiment was examined, by using Procollagen Type I C-Peptide (PIP) EIA Kit, effects of induction of procollagen secretion and cytotoxicity in respect of hs68 human fibroblasts.

[3] = test system: hs68 human fibroblasts; experiment: Cytotoxicity (cell viability) in anti-aging evaluation; type: cell-based; details: TGFβ; (sample/control) × 100%
Source text: as §1

[4] = as above; type: cell-based, human; details: human, hs68 human fibroblasts, (sample/control) × 100%
Source text: as §1

For `CC1=C(/C=C/C(C)=C/C=C/C(C)=C/C(=O)O)C(C)(C)CCC1` [RA, retinoic acid, reference compound], which “MMP-1 Conc.” value ([1]; RA 3.3 μM (positive control)) is on record?
The value was 155.9 pg/mL and 271.3 pg/mL.

Which “inhibition of MMP-1” value ([1]; 0.05 μM) does the source give for `CC(C)[C@H]1CC[C@H](C)CC12NC(=O)[C@@H](Cc1ccccc1)NC(=O)[C@H](CC(=O)O)NC(=O)CNC(=O)[C@H](CCCNC(=N)N)NC2=O` (stereo partly drawn) [III-3] here?
Its value is “about 60%”.

What about the “inhibition of MMP-1” value ([1]; 0.25 μM) of the same compound?
The value was “about 80%”.

And the “inhibition of MMP-1” value ([1]; 1.25 μM)?
Its value is ~87%.

What about the “inhibition of MMP-1” value ([1]; 2.5 μM) of the same compound?
Its value is ~91%.

And the IC50 [1]?
Its IC50 is 20 nM.

What about the “MMP-1 Conc.” value ([1]; cyclopeptide 0.05 μM) of the same compound?
The value was 337.8 pg/mL.

And the “MMP-1 Conc.” value ([1]; cyclopeptide 0.25 μM)?
The value was 244.2 pg/mL.

And the “MMP-1 Conc.” value ([1]; cyclopeptide 1.25 μM)?
Its value is 212.7 pg/mL.

And the “MMP-1 Conc.” value ([1]; cyclopeptide 2.5 μM)?
The value was 194.2 pg/mL.

What about the “MMP-1 Conc.” value ([1]; cyclopeptide 5 μM) of the same compound?
Its value is 168.6 pg/mL.

Which results are given for `N=C(N)NCCC[C@@H]1NC(=O)C2(CCNCC2)NC(=O)[C@@H](Cc2ccccc2)NC(=O)[C@H](CC(=O)O)NC(=O)CNC1=O` [III-1]?
inhibition of MMP-1 ([1]; 0.05 μM): 12%; inhibition of MMP-1 ([1]; 0.25 μM): 38%; inhibition of MMP-1 ([1]; 1.25 μM): 90%; IC50 [1]: 700 nM; MMP-1 Conc. ([1]; cyclopeptide 0.05 μM): 422.3 pg/mL; MMP-1 Conc. ([1]; cyclopeptide 0.25 μM): 378.2 pg/mL; MMP-1 Conc. ([1]; cyclopeptide 1.25 μM): 288.0 pg/mL; MMP-1 Conc. ([1]; cyclopeptide 2.5 μM): 271.8 pg/mL

Which “Procollagen Type I” value ([2]; TGFβ 0.83 μM) does the source give for TGFβ [reference compound] here?
The value was 320 ng/mL.

And the Cell viability [3]?
Its Cell viability is 95%.

Which “Procollagen Type I” value ([2]; cyclopeptide 0.0008 μM) does the source give for `N=C(N)NCCC[C@@H]1NC(=O)C2(CCCCC2)NC(=O)[C@@H](Cc2ccccc2)NC(=O)[C@H](CC(=O)O)NC(=O)CNC1=O` [III-5] here?
The value was 235 ng/mL.

What about the “Procollagen Type I” value ([2]; cyclopeptide 0.004 μM) of the same compound?
The value was 225 ng/mL.

And the “Procollagen Type I” value ([2]; cyclopeptide 0.02 μM)?
The value was 220 ng/mL.

And the “Procollagen Type I” value ([2]; cyclopeptide 0.1 μM)?
Its value is 208 ng/mL.

And the “Procollagen Type I” value ([2]; cyclopeptide 0.25 μM)?
Its value is 208 ng/mL.

What about the “Procollagen Type I” value ([2]; cyclopeptide 0.5 μM) of the same compound?
The value was 184 ng/mL.

And the viability at 0.0008 µM ([4]; cyclopeptide 0.0008 μM)?
Its viability at 0.0008 µM is 92%.

What about the viability at 0.004 µM ([4]; cyclopeptide 0.004 μM) of the same compound?
Its viability at 0.004 µM is 97%.

What about the viability at 0.02 µM ([4]; cyclopeptide 0.02 μM) of the same compound?
Its viability at 0.02 µM is 100%.

And the viability at 0.1 µM ([4]; cyclopeptide 0.1 μM)?
The viability at 0.1 µM was 97%.

What about the viability at 0.25 µM ([4]; cyclopeptide 0.25 μM) of the same compound?
Its viability at 0.25 µM is 99%.

And the viability at 0.5 µM ([4]; cyclopeptide 0.5 μM)?
Its viability at 0.5 µM is 100%.
